Results on 5 molecules are retold here after ChEMBL document CHEMBL1201862, “PubChem BioAssay data set” (2004).

Molecules are shown by their SMILES. Active and inactive are the calls of the source. Where only a bound is given, the exact number is not on record here.

For test [1], the target named is G-protein coupled receptor 55 (Homo sapiens, UniProt Q9Y2T6). Description: blockers of GPR55 signalling, imaged – imaging, image-based, counter-screen for GPR35 antagonist project, SAR follow-up (AID 2397). It is filed as functional. Background: The purpose of a counterscreen is to sort out artefacts and off-target activity.
Test [2] has as its target G-protein coupled receptor 35 (Homo sapiens, UniProt Q9HC97). As to the kind of experiment: SAR Analysis for the identification of Selective Antagonists of ERK1/2 Activity in GPR35-Overexpressing U2OS Cells. [Related pubchem assays: 2079, 2058 ]. It counts as functional, cell-based.
The target of test [3] is T1, Dual specificity protein phosphatase 3 (Homo sapiens, UniProt P51452). Description: VHR1 phosphatase inhibitors, biochemical (AID 1878).
The target of test [4] is T1, Dual specificity protein phosphatase 3. Description: VHR1 phosphatase inhibitors, primary screen, biochemical, absorbance, uHTS (AID 1654).
Test [5] has as its target Dual specificity protein phosphatase 6 (Rattus norvegicus, UniProt Q64346). Description: inhibition of rat DUSP6 enzyme activity – biochemical, in vitro, primary screen (AID 425).
Test [6] concerns the target Induced myeloid leukemia cell differentiation protein Mcl-1 (Homo sapiens, UniProt Q07820). It counts as functional.
A further test concerns the target T2, CAAX prenyl protease 2 (Saccharomyces cerevisiae S288c, UniProt Q03530).
T2 sequence (Q03530 whole entry): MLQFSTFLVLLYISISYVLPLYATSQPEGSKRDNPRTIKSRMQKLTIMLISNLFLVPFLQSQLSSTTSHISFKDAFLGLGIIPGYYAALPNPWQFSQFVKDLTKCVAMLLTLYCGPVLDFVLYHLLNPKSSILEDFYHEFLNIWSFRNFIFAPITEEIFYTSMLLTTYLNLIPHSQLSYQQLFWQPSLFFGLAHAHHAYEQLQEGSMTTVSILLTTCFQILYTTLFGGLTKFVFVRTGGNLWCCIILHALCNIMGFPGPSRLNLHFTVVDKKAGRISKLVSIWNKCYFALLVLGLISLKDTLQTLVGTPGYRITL
It is filed as biochemical.

For another test, the target named is CAAX prenyl protease 1 (Saccharomyces cerevisiae S288c, UniProt P47154). Description: yeast CAAX protease Ste24 inhibition – biochemical, S. cerevisiae, plate reader, cherry-pick, dose response (AID 488815).
For a further test, the target named is Trypsin (Sus scrofa, UniProt P00761). Description: trypsin protease activity blockade – biochemical, quenched peptide fluorescence, cherry-pick, selectivity assay for Rce1 protease inhibitor project, dose response (AID 488789).
Test [7] concerns the target T3, Mu-type opioid receptor (Homo sapiens, UniProt P35372). As to the kind of experiment: HTS Image-Based Screen for Agonists of the MOR Receptor. [Related pubchem assays (depositor defined):AID1777, AID1785, AID1786, AID2133]. It is filed as functional.
Test [8] concerns the target T4, Delta-type opioid receptor (Homo sapiens, UniProt P41143). Description: delta opioid receptor blockers – image-based, SAR follow-up (AID 2357). It counts as functional.
The target of test [9] is T4, Delta-type opioid receptor. Description: HTS Image-Based Screen for Antagonists of the DOR Receptor. [Related pubchem assays (depositor defined):AID1777, AID1785, AID1786, AID2133]. It counts as functional.
The next test deals with Beta-galactosidase (Escherichia coli, UniProt Q8VNN2). It is filed as functional.
In test [10] the target is T5, Kappa-type opioid receptor (Homo sapiens, UniProt P41145). As to the kind of experiment: kappa opioid receptor blockers, cell-based, luminescence, beta-arrestin, SAR follow-up (AID 2285). It is filed as functional.
In test [11] the target is T4, Delta-type opioid receptor. Description: HTS Image-Based Screen for Agonists of the DOR Receptor. [Related pubchem assays (depositor defined):AID1777, AID1786, AID2133]. It is filed as functional.
For test [12], the target named is T3, Mu-type opioid receptor. As to the kind of experiment: mu opioid receptor blockers – image-based, SAR follow-up (AID 2420).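 Note: compounds added before stimulation of receptor with agonist DAMGO.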 It counts as functional.
The target of test [13] is T4, Delta-type opioid receptor. As to the kind of experiment: DOR agonists, SAR follow-up, image-based (AID 2370). It is filed as functional.
Test [14] deals with T5, Kappa-type opioid receptor. Description: kappa opioid receptor blockers, image-based, SAR follow-up (AID 2348). It counts as functional.
The target in test [15] is T5, Kappa-type opioid receptor. Description: kappa opioid receptor activation potency – imaging, image-based, SAR follow-up (AID 2359). It counts as functional.
Test [16] concerns the target T5, Kappa-type opioid receptor. It is filed as functional.
Test [17] deals with T3, Mu-type opioid receptor. As to the kind of experiment: mu opioid receptor activators, image-based, SAR follow-up (AID 2352). It is filed as functional.
The target of test [18] is T5, Kappa-type opioid receptor. It is filed as functional. The source holds these as a separate data set.
Test [19] can be described thus: alpha-synuclein stem-loop luciferase translation blockers – H4 neuroglioma cells, luminescence, confirmation (AID 1988). It is filed as functional, cell-based.
For test [20], the target named is Intestinal-type alkaline phosphatase (Homo sapiens, UniProt P09923). As to the kind of experiment: Dose Response confirmation of uHTS hits from a small molecule inhibitors of human intestinal alkaline phosphatase via a luminescent assay. [Related pubchem assays (depositor defined):AID2544, AID2574]. It counts as functional.
A short description of test [21]: cells. It is filed as functional, cell-based.
Test [22] is described as follows: THP-1 cell cytotoxicity, dose response, cytotoxicity control for non-replicating M. tuberculosis project (AID 489025). It counts as functional.
In the next test the test system is HEK293. As to the kind of experiment: EBV LMP1 TES2 canonical NF-kB signalling blockers – cell-based, HEK293, luciferase, cherry-pick, dose response (AID 588343). The conditions noted are these: Homo sapiens. It counts as functional.
Test [23] in a line: cells. It counts as functional.
Test [24] relates to BJ. As to the kind of experiment: BJ-TERT fibroblast viability loss – cell-based, RAS-independent, luminescence, dose response (AID 1933). It counts as functional. The conditions noted are these: Homo sapiens.
A short description of test [25]: DRD fibroblast viability loss – cell-based, non-viral oncogenic, luminescence, dose response (AID 1934). It is filed as functional. The conditions noted are these: Homo sapiens.
Test [26] can be described thus: Luminescence Cell-Based Dose Response HTS to Identify Inhibitors of 5'UTR Stem-Loop Driven Prion Protein mRNA Translation in H4 Neuroglioblastoma Cells. [Related pubchem assays: 1827 (Project Summary), 1813 (Primary HTS)]. It is filed as functional.
For the next test, the target named is Nonstructural protein 1 (Influenza A virus, UniProt Q194T2). It counts as functional, Influenza A virus (A/California/07/2009(H1N1)).
For test [27], the system named is BJ. As to the kind of experiment: growth inhibition of engineered Ras-driven BJ cells – cell-based, alamar blue fluorescence, cherrypicked samples, dose response (AID 2631).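 Note: confirmatory dose-response assay in RAS-dependent BJ fibroblasts engineered with TERT, LT and ST, with cytotoxicity read by fluorescence.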 The conditions noted are these: Homo sapiens. It is filed as functional.
A short description of test [28]: luciferase reporter signal suppression in cells – H4 neuroglioma cells, luminescence, dose response (AID 1990). It counts as functional, cell-based.
The subject of test [29] is BJ. As to the kind of experiment: BJ-TERT-LT-ST fibroblast viability loss – cell-based, RAS-independent, luminescence, dose response (AID 1935).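 Note: BJ fibroblasts immortalized with TERT plus LT and ST oncogenes.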 It counts as functional. Particulars: Homo sapiens.
Test [30] concerns BJ. Description: cells. It counts as functional, cell-based. The conditions noted are these: Homo sapiens.
The nature of test [31]: Counterscreen for AddAB inhibitors: absorbance-based bacterial cell-based high throughput dose response assay for inhibitors of bacterial viability. [Related pubchem assays (depositor defined):AID435030, AID449728, AID449731, AID488942, AID488955, AID488956]. It counts as functional.
The target of test [32] is Heat shock protein HSP 90-alpha (Homo sapiens, UniProt P07900). It counts as functional, organism-based.
Test [33] is described as follows: cells. It is filed as functional, cell-based. This is another data set of the same source.
The next test addresses Exodeoxyribonuclease V (Escherichia coli (strain K12), UniProt P04993+P07648+P08394). As to the kind of experiment: RecBCD inhibition via phage-restricted bacterial growth – absorbance, V66 E. coli, mutant T4 phage, counter-screen for AddAB inhibitor project, dose response (AID 492957). It is filed as functional, cell-based, Escherichia coli str. K-12 substr. MG1655.
The next test deals with INS1. Description: INS-1E survival protection against cytokine death – cell-based, luminescence, retest, dose response (AID 449756).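 Note: cell death triggered by IL-1 beta plus TNF-alpha plus IFN-gamma mixture; protective hits raise ATP signal compared with cytokine alone wells.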 It counts as functional. The conditions noted are these: Rattus norvegicus.

T3 sequence (P35372 whole entry): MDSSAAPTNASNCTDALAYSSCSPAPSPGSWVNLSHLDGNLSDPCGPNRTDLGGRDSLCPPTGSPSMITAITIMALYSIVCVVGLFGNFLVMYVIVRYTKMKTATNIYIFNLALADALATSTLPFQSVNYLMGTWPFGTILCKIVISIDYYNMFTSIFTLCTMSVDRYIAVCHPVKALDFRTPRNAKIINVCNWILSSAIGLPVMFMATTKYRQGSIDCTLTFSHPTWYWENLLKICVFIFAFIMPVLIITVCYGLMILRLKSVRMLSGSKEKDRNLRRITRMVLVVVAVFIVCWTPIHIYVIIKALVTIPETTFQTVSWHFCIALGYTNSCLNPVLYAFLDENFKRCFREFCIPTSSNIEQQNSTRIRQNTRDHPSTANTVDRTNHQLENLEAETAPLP
T4 sequence (P41143 whole entry): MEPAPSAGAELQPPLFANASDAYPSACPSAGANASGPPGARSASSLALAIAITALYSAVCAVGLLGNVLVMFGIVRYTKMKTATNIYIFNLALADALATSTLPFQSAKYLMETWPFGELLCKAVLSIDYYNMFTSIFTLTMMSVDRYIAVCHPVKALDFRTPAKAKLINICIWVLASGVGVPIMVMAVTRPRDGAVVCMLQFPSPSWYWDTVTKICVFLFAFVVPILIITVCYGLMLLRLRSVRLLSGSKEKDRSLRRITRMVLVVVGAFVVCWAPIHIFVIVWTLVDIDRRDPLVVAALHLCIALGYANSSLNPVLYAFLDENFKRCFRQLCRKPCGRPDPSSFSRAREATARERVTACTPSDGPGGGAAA
T5 sequence (P41145 whole entry): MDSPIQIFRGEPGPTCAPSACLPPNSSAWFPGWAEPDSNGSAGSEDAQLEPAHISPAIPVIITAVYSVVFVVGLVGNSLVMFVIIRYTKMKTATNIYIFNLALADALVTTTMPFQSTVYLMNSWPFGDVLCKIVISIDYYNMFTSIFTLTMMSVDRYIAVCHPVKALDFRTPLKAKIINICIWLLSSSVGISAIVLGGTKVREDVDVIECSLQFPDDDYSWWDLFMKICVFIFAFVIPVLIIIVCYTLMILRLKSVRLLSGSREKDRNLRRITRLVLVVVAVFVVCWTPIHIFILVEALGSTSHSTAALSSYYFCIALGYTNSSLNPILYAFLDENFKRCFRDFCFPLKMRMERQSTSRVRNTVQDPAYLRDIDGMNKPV
T1 sequence (P51452 whole entry): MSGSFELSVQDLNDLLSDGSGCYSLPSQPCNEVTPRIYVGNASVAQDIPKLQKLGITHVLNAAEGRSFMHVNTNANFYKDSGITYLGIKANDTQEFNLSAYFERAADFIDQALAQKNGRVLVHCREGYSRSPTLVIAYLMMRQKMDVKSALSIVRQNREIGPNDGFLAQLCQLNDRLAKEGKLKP
Beta-galactosidase, sequence (Q8VNN2 whole entry): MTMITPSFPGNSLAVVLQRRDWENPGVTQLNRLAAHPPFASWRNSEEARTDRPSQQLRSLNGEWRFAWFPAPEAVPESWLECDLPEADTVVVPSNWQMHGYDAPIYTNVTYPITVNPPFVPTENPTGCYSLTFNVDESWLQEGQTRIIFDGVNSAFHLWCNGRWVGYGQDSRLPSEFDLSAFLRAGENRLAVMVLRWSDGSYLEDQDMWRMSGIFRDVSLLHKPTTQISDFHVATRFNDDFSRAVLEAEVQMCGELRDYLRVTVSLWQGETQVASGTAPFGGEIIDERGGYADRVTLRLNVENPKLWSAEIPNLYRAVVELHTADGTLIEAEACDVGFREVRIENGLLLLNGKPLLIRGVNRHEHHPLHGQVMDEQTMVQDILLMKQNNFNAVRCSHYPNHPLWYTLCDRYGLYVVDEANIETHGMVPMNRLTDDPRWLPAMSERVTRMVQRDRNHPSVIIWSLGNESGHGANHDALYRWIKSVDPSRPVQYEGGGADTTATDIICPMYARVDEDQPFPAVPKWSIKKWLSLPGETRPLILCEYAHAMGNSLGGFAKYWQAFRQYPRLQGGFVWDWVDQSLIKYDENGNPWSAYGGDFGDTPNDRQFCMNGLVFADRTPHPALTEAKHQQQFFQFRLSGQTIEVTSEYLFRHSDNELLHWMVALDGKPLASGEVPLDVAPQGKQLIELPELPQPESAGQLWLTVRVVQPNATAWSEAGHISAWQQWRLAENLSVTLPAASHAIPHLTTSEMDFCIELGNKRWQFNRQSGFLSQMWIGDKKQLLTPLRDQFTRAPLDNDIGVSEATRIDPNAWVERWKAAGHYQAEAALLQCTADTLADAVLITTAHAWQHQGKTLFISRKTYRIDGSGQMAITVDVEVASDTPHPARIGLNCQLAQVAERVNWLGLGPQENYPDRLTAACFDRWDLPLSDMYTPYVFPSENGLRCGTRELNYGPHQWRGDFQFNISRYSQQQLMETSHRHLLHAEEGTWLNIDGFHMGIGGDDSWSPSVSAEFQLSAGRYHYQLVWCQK
Dual specificity protein phosphatase 6, sequence (Q64346 whole entry): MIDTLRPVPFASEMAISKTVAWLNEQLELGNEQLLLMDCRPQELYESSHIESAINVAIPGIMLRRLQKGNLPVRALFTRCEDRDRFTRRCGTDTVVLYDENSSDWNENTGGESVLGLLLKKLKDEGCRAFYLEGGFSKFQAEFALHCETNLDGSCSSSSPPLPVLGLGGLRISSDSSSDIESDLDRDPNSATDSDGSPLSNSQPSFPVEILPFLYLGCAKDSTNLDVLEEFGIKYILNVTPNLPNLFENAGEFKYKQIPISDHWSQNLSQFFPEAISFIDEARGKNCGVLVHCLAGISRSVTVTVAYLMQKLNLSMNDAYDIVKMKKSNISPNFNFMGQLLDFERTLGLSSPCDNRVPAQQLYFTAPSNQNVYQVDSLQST
Nonstructural protein 1, sequence (Q194T2 whole entry): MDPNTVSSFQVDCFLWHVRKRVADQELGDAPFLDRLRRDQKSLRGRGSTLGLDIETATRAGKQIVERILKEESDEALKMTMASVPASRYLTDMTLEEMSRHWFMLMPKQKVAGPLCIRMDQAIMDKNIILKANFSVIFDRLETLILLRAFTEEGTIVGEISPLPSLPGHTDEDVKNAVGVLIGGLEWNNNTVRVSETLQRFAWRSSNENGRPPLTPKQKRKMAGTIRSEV
Induced myeloid leukemia cell differentiation protein Mcl-1, sequence (Q07820 whole entry): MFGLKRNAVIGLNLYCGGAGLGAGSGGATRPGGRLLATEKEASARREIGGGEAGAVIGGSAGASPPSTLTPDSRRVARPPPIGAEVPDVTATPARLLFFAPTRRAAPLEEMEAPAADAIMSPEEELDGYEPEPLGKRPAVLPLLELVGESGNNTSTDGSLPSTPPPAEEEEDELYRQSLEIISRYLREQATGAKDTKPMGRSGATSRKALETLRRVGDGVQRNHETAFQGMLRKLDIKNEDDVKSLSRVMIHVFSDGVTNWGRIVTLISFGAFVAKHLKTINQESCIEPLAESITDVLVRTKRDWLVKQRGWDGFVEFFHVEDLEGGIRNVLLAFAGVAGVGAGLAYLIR
CAAX prenyl protease 1, sequence (P47154 whole entry): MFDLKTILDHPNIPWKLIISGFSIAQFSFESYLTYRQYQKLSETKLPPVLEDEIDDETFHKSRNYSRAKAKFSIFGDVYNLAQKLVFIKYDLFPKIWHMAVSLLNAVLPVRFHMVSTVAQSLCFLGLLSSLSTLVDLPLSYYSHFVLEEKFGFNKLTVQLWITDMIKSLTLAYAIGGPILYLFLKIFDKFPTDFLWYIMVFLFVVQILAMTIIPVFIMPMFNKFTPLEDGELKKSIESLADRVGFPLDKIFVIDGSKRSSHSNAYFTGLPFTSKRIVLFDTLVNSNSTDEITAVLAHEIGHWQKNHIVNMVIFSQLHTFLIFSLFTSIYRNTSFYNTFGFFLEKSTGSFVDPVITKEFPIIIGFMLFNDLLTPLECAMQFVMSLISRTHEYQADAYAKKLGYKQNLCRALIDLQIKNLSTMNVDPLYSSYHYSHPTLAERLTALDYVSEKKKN
G-protein coupled receptor 35, sequence (Q9HC97 whole entry): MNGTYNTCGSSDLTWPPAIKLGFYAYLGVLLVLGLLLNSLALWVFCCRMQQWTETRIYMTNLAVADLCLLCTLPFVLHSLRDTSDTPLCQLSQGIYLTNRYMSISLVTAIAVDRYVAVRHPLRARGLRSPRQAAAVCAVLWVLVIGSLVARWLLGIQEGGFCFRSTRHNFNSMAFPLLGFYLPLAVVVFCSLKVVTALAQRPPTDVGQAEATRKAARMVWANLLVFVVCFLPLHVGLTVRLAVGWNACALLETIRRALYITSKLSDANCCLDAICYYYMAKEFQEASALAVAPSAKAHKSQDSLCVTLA
G-protein coupled receptor 55, sequence (Q9Y2T6 whole entry): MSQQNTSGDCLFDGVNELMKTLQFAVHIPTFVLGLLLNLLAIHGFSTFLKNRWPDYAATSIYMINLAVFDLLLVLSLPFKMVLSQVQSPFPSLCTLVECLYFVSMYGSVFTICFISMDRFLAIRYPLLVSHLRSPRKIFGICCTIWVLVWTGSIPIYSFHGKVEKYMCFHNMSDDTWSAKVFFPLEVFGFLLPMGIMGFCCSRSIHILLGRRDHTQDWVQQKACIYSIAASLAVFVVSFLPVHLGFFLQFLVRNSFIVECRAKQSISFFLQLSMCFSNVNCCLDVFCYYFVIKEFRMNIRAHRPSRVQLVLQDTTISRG
Intestinal-type alkaline phosphatase, sequence (P09923 whole entry): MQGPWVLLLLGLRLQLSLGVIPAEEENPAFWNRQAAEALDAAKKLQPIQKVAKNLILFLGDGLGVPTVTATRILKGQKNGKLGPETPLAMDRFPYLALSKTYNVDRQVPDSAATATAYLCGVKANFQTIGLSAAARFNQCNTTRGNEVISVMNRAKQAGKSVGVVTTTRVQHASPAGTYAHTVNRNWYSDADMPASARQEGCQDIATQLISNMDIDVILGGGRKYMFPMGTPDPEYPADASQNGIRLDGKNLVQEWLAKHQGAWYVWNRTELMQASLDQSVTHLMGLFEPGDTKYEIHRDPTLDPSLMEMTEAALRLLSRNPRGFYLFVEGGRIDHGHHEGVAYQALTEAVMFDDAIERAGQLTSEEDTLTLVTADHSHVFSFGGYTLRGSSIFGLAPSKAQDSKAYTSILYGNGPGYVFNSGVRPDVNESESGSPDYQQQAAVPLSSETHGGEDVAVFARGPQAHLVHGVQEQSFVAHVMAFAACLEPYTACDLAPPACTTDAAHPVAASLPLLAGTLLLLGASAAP

One may read the IC50 as the midpoint of a concentration-inhibition curve. On to `CCOc1ccc(NC(=O)CSc2nc3ccsc3c(=O)n2Cc2ccc(C(=O)O)cc2)cc1`, for which the IC50 in [1] is > 32 µM (inactive); in test [2], 14.5 µM (not active).

As for `Cc1cc2nc(-c3ccc(SCc4ccc(C(=O)O)cc4)nc3)[nH]c2cc1C`, the IC50 is 5.73 µM (active) in test [3], 13.9 µM (active) in test [4], 25.8 µM (active) in test [5] and 7.97 µM (active) in test [6].

A word on the AC50: it is the midpoint of the concentration-response curve, whichever way the signal moves. In the case of `COc1ccccc1-c1coc2c(CN3CCN(C)CC3)c(O)ccc2c1=O`, the values for the AC50 on CAAX prenyl protease 2, on CAAX prenyl protease 1 and on Trypsin were 97.9 µM (active), 1.57 µM (active) and 28.3 µM (active), respectively.

A word on the EC50: it is the concentration giving half of the maximal effect. In the case of `CCOc1ccc(C(=O)NC2CC3CCCC(C2)N3Cc2ccccc2)cc1` (stereo unspecified), the EC50 on Mu-type opioid receptor [7] was > 32 µM (inactive); on Beta-galactosidase, > 31.5 µM (inactive); in test [11] it was > 32 µM (inactive); in test [13] it was > 32 µM (inactive); in test [15] it was > 32 µM (inactive); on Mu-type opioid receptor [17], > 32 µM (inactive). For the same molecule, the IC50 in test [8] is > 32 µM (inactive); in test [9], > 32 µM (inactive); in test [10], > 10 µM (inactive); on Mu-type opioid receptor [12] it was > 32 µM (inactive); in test [14], > 32 µM (inactive); in [16] it was 14.8 µM. Further, the IC50 in test [18] is 7.52 µM (active).

As usually defined, the CC50 is the concentration giving 50% cytotoxicity. Take `Cn1nnnc1N=N/C(=N/Nc1ccccc1)c1ccccc1`: the EC50 in test [19] was 8.09 µM (active); in “cells [21]”, > 350 µM (not active); in the test with BJ [24], 5.67 µM (active); in test [25], 7.59 µM (inconclusive); in test [26] it was > 120 µM (not active); in the test on BJ [27], 0.627 µM (inconclusive). For the same molecule, the EC50 in test [28] was > 120 µM (not active); in the test with BJ [29] it was 4.63 µM (inconclusive); in the test on BJ [30] it was 2.17 µM (active); in the test “cells [33]”, 8.13 µM (active). Moreover, the IC50 was > 100 µM (inactive) in [20]; 26.6 µM (active) in “cells [23]”; 26.5 µM (active) on Nonstructural protein 1; > 119 µM (inactive) in test [31]; > 119 µM (inactive) at Exodeoxyribonuclease V. The half-maximal cytotoxic concentration (CC50) in test [22] is < 0.078 µM (active). The AC50 was 2.69 µM (active) with HEK293, 3.55 µM (active) in test [32] and 0.408 µM (active) with INS1.
